Laboratory results from patent US7410970B2, “Substituted 1,4,-di-piperidin-4-yl-piperazine derivatives and their use as neurokinin antagonists” (Janssen Pharmaceutica, N.V., priority 2002, dated 2008).

How the values were obtained:
h-NK1 receptor = molecular target: T1, h-NK1 receptor (Homo sapiens, UniProt P25103); assay: Binding experiment for h-NK1 receptor: displacement of [3H]-Substance P, CHO cells; conditions: cloned human h-NK1 receptors expressed in CHO cells, read-out: h-NK1 pIC50 (converted)
T1 construct: expressed in transfected cells; host or cells: CHO cells
Experimental: (§1) The compounds according to the invention were investigated for interaction with various neurotransmitter receptors, ion channels and transporter binding sites using the radioligand binding technique. Membranes from tissue homogenates or from cells, expressing the receptor or transporter of interests, were incubated with a radioactively labelled substance ([^3H]- or [^125I] ligand) to label a particular receptor. […] Following incubation, labelled membranes were harvested and rinsed with excessive cold buffer to remove non-bound radioactivity by rapid filtration under suction. Membrane bound radioactivity was counted in a scintillation counter and results were expressed in counts per minute (cpm). The compounds were dissolved in DMSO and tested at 10 concentrations ranging from 10^−10 to 10^−5 M. The ability of the compounds according to the invention to displace [^3H]-Substance P from cloned human h-NK1 receptors expressed in CHO cells, to displace [^3H]-SR-48968 from cloned human h-NK2 receptors expressed in Sf9 cells, and to displace [^3H]-SR-142801 from cloned human h-NK3 receptors expressed in CHO cells was evaluated.

h-NK2 receptor = molecular target: T2, h-NK2 receptor (Homo sapiens, UniProt P21452); assay: Binding experiment for h-NK2 receptor: displacement of [3H]-SR-48968, Sf9 cells; conditions: cloned human h-NK2 receptors expressed in Sf9 cells, read-out: h-NK2 pIC50 (converted)
T2 construct: expressed in transfected cells; host or cells: Sf9 cells
T2 sequence (P21452 1-398): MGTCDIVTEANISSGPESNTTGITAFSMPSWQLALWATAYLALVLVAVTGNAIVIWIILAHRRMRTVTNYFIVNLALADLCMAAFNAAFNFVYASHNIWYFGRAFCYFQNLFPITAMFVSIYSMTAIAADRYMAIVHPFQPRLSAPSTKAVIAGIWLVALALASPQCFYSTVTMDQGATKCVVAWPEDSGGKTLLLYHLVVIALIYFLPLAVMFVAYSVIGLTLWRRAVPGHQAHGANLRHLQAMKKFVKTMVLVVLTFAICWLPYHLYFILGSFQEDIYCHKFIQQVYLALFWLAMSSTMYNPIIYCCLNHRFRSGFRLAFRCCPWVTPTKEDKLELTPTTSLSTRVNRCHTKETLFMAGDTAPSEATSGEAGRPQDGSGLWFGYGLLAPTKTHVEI
Experimental: as §1

h-NK3 receptor = molecular target: T3, h-NK3 receptor (Homo sapiens, UniProt P29371); assay: Binding experiment for h-NK3 receptor: displacement of [3H]-SR-142801, CHO cells; conditions: cloned human h-NK3 receptors expressed in CHO cells, read-out: h-NK3 pIC50 (converted)
T3 construct: expressed in transfected cells; host or cells: CHO cells
T3 sequence (P29371 1-465): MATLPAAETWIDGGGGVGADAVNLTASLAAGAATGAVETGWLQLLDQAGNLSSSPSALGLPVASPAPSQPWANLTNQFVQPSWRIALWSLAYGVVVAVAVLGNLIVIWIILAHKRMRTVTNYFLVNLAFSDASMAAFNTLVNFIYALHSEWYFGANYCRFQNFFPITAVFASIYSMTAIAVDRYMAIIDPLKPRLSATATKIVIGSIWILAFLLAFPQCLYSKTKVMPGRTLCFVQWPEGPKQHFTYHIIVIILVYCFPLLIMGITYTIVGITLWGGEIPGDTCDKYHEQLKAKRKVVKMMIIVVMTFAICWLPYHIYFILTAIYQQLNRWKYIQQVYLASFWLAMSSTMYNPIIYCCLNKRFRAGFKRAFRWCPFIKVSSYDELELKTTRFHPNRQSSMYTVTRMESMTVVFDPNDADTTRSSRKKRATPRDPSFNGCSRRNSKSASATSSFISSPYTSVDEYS
Experimental: as §1

T1 sequence (P25103 whole entry): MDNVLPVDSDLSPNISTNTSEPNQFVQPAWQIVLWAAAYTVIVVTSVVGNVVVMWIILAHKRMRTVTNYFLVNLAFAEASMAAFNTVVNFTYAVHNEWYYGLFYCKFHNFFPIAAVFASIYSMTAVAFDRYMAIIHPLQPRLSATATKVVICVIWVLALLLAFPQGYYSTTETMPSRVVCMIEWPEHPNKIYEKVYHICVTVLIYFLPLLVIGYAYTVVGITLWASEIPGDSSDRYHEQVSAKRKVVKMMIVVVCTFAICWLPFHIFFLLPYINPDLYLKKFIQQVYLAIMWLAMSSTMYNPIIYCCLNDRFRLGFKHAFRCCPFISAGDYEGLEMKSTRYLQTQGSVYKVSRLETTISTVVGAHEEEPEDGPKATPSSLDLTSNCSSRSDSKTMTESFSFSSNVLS

Structure (SMILES): O=C(c1cc(C(F)(F)F)cc(C(F)(F)F)c1)N1CCC(N2CCN(C3CCN(Cc4nc5ccccc5[nH]4)CC3)CC2)CC1Cc1ccccc1 (stereo not shown) [Compound 7]
- melting point: 135 °C

Structure (SMILES): COc1cc(N)c(Cl)cc1C(=O)N1CCC(N2CCN([C@H]3CCN(C(=O)c4cc(C(F)(F)F)cc(C(F)(F)F)c4)[C@H](Cc4ccccc4)C3)CC2)CC1 [Compound 64]
- IC50 (h-NK1 receptor): 7.94 nM
- IC50 (h-NK2 receptor): 398 nM
- IC50 (h-NK3 receptor): 398 nM
